Common to all, as to format: functional, organism-based
Common to all, as to settings: Giardia duodenalis

Test [1] deals with Giardia intestinalis. The test is described as follows: Antimicrobial activity against Giardia lamblia assemblage A WB C6 ATCC 30957 cyst.
Test [2] relates to Giardia intestinalis. The test is described as follows: Antimicrobial activity against Giardia lamblia assemblage A WB C6 ATCC 30957 trophozoites.
Test [3] relates to Giardia intestinalis. The test is described as follows: Antimicrobial activity against Giardia lamblia GS/M assessed as reduction in trophozoites formation.

The IC50 is the midpoint of a concentration-inhibition curve. In the case of `COc1ccc(Cn2cc(C#Cc3cn(C[C@H]4O[C@@H](n5ccc(=O)n(Cc6ccc(OC)cc6)c5=O)[C@@H]5OC(C)(C)O[C@@H]54)nn3)c(=O)n(Cc3ccc(OC)cc3)c2=O)cc1`, the results for the IC50 in the test with Giardia intestinalis [1] and with Giardia intestinalis [2] were 5 µM and 36 µM, respectively.
For `CC1(C)O[C@@H]2[C@H](O1)[C@@H](Cn1cc(C#Cc3c[nH]c(=O)[nH]c3=O)nn1)O[C@H]2n1ccc(=O)[nH]c1=O` the same measures were greater than 50 µM and 5 µM.
For the molecule `O=c1ccn([C@@H]2O[C@H](Cn3cc(C#CC#Cc4cn(C[C@H]5O[C@@H](n6ccc(=O)[nH]c6=O)[C@H](O)[C@@H]5O)nn4)nn3)[C@@H](O)[C@H]2O)c(=O)[nH]1`, the IC50 in the test with Giardia intestinalis [1] was greater than 50 µM; in the test with Giardia intestinalis [2], 47 µM.
Consider `CC1(C)O[C@@H]2[C@H](O1)[C@@H](Cn1cc(CCCCc3cn(C[C@H]4O[C@@H](n5ccc(=O)[nH]c5=O)[C@@H]5OC(C)(C)O[C@@H]54)nn3)nn1)O[C@H]2n1ccc(=O)[nH]c1=O`, for which the IC50 in the test with Giardia intestinalis [1] is greater than 50 µM; with Giardia intestinalis [2] it was 47 µM.
For `O=c1ccn([C@@H]2O[C@H](Cn3cc(C#Cc4c[nH]c(=O)[nH]c4=O)nn3)[C@@H](O)[C@H]2O)c(=O)[nH]1` the same measures were 20 µM and 36 µM.
As a reminder, the EC50 is the concentration at which the effect is half-maximal. Regarding `Cc1ncc([N+](=O)[O-])n1CCO` [METRONIDAZOLE], in the test with Giardia intestinalis [3], the EC50 amounted to 5.2 µM.

Source of the values: ChEMBL document CHEMBL4619749, “Triazoxins: Novel nucleosides with anti-Giardia activity” (Bioorg Med Chem Lett, 2020).
